Source: publication PMC9750858, “Rapid biosensor development using plant hormone receptors as reprogrammable scaffolds” (Nature Biotechnology, 2022)
Where “and” joins values, the source holds several entries; their conditions need not be identical. Equal values may be shown once.

Tests used:
PYR1^WIN-M = molecular target: T1, PYR1^WIN-M (Arabidopsis thaliana, UniProt O49686, A160I/D26G/E4G/F159A/H60P/K59Q/N90S/Y23H); assay: ELISA-like plate assay, immobilized PYR1^WIN-M, biotinylated ΔN-HAB1^T+; format: binding; conditions: for ELISA signal generation, receptor cross-reactivity (source data): replicates; for LOD (lower limit of detection): fivefold dilution
T1 construct: made in house
T1 sequence (O49686 with tags, fused parts or gaps E4G/Y23H/D26G/K59Q/H60P/N90S/F159A/A160I): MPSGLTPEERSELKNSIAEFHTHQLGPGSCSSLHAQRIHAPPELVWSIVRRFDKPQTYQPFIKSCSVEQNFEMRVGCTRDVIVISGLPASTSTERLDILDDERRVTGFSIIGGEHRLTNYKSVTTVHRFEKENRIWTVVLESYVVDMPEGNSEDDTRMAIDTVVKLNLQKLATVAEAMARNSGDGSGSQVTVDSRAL

PYR1^PIRI = molecular target: T2, PYR1^PIRI (Arabidopsis thaliana, UniProt O49686, A160T/E130G/F159T/K59R/N119S/S122Q/S92M/V174A); assay: Split NanoLuc luciferase complementation in yeast, NLuc^N-PYR1^PIRI/NLuc^C-HAB1;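 for split luciferase luminescence (Fig. 4c source data): relative luminescence averaged over the signal plateau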; format: cell-based; conditions: replicates; for split luciferase luminescence (Fig. 4c source data): ligand pirimiphos-methyl
T2 construct: >PYR1-PIRI; expressed in transfected cells; host or cells: Saccharomyces cerevisiae BY4742
T2 sequence (O49686 other isoform, or with tags, fused parts or gaps K59R/S92M/N119S/S122Q/E130G/F159T/A160T/V174A): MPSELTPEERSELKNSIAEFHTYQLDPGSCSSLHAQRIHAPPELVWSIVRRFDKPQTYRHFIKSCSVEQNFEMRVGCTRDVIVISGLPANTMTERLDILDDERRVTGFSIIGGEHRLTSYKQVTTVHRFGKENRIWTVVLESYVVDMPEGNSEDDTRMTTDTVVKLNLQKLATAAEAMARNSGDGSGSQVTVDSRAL
T2 sequence (Q9CAJ0 179-511, further chain): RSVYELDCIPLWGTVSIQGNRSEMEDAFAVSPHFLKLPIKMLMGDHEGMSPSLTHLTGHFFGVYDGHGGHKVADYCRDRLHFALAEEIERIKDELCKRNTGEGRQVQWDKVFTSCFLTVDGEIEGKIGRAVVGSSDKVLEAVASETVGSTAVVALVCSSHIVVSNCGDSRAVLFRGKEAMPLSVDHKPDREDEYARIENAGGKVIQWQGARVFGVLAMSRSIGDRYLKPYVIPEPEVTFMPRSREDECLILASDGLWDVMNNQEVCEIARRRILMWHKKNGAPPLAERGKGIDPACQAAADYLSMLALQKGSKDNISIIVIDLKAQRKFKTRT

PYR1^DIAZI = PYR1^DIAZI (Arabidopsis thaliana, UniProt O49686, A160V/E8G/F108Y/F159G/L87M/M158V/V81Y); assay: Split NanoLuc luciferase complementation in yeast, NLuc^N-PYR1^DIAZI/NLuc^C-HAB1;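 for split luciferase luminescence (Fig. 4c source data): relative luminescence averaged over the signal plateau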; format: cell-based; set-up: >PYR1-DIAZI; expressed in transfected cells; host or cells: Saccharomyces cerevisiae BY4742; conditions: for Sensor signal (Figure 4f top), replicate values: 3 replicates; for split luciferase luminescence (Fig. 4c source data): ligand diazinon, replicates
PYR1^DIAZI, sequence (Q9CAJ0 179-511): as the sequence (Q9CAJ0 179-511, further chain) above
PYR1^DIAZI, sequence (O49686 other isoform, or with tags, fused parts or gaps E8G/V81Y/L87M/F108Y/M158V/F159G/A160V): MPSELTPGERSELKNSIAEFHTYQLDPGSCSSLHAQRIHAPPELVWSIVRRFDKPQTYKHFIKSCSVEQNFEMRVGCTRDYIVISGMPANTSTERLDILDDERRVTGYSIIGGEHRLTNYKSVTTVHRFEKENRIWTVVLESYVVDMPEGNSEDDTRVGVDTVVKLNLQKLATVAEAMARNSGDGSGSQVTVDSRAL

## O=C(Nc1cccc2cccnc12)c1cn(CCCCCF)c2ccccc12 [AM2201, AM2201 8-quinolinyl carboxamide]
PYR1^WIN-M; cannabinoid at 2 nM
  ELISA signal generation, receptor cross-reactivity (source data): 0.169 and 0.127 and 0.144
PYR1^WIN-M; cannabinoid at 2 μM
  ELISA signal generation, receptor cross-reactivity (source data): 0.112 and 0.114 and 0.096

## C=C(C)[C@@H]1CCC(C)=C[C@H]1c1c(O)cc(CCCCC)cc1O [Cannabidiol]
PYR1^WIN-M; cannabinoid at 2 nM
  ELISA signal generation, receptor cross-reactivity (source data): 0.109 and 0.094 and 0.096
PYR1^WIN-M; cannabinoid at 2 μM
  ELISA signal generation, receptor cross-reactivity (source data): 0.095 and 0.093 and 0.084

## CCOP(=S)(OCC)Oc1ccc2c(C)c(Cl)c(=O)oc2c1 [Coumaphos]
PYR1^PIRI; [Agonist] 1e-5 nM
  Sensor signal (Figure 4f bottom), replicate values: 11.6429 and 18.6581 and 9.869
PYR1^PIRI; [Agonist] 0.5 nM
  Sensor signal (Figure 4f bottom), replicate values: 10.5853 and 39.7892 and 9.475
PYR1^PIRI; [Agonist] 1 nM
  Sensor signal (Figure 4f bottom), replicate values: 12.0486 and 19.9282 and 8.797
PYR1^PIRI; [Agonist] 10 nM
  Sensor signal (Figure 4f bottom), replicate values: 7.164 and 12.4287 and 9.583
PYR1^PIRI; [Agonist] 100 nM
  Sensor signal (Figure 4f bottom), replicate values: 8.8955 and 12.6369 and 17.1023
PYR1^PIRI; [Agonist] 1000 nM
  Sensor signal (Figure 4f bottom), replicate values: 9.4868 and 11.2169 and 22.673
PYR1^PIRI; [Agonist] 10000 nM
  Sensor signal (Figure 4f bottom), replicate values: 12.3815 and 19.3959 and 83.5281
PYR1^PIRI; [Agonist] 100000 nM
  Sensor signal (Figure 4f bottom), replicate values: 9.584 and 13.286 and 71.6379
PYR1^DIAZI; [Agonist] 1e-5 nM
  Sensor signal (Figure 4f top), replicate values: 16.388 and 9.752 and 14.788
PYR1^DIAZI; [Agonist] 0.5 nM
  Sensor signal (Figure 4f top), replicate values: 30.8829 and 12.1724 and 17.852
PYR1^DIAZI; [Agonist] 1 nM
  Sensor signal (Figure 4f top), replicate values: 36.8131 and 33.8683 and 15.2635
PYR1^DIAZI; [Agonist] 10 nM
  Sensor signal (Figure 4f top), replicate values: 15.4966 and 64.9896 and 15.1391
PYR1^DIAZI; [Agonist] 100 nM
  Sensor signal (Figure 4f top), replicate values: 12.996 and 65.6413 and 15.942
PYR1^DIAZI; [Agonist] 1000 nM
  Sensor signal (Figure 4f top), replicate values: 21.5139 and 73.8437 and 25.5745
PYR1^DIAZI; [Agonist] 10000 nM
  Sensor signal (Figure 4f top), replicate values: 81.7848 and 47.8146 and 79.9027
PYR1^DIAZI; [Agonist] 100000 nM
  Sensor signal (Figure 4f top), replicate values: 105.044 and 22.805 and 29.2791

## CCCCCn1cc(C(=O)c2cccc3ccccc23)cc1-c1ccccc1 [JWH-145]
PYR1^WIN-M; cannabinoid at 2 nM
  ELISA signal generation, receptor cross-reactivity (source data): 0.469 and 0.077 and 0.091
PYR1^WIN-M; cannabinoid at 2 μM
  ELISA signal generation, receptor cross-reactivity (source data): 0.105 and 0.116 and 0.1

## CCCCCn1cc(C(=O)Cc2ccccc2)c2ccccc21 [JWH-167]
PYR1^WIN-M; cannabinoid at 2 nM
  ELISA signal generation, receptor cross-reactivity (source data): 0.146 and 0.078 and 0.09
PYR1^WIN-M; cannabinoid at 2 μM
  ELISA signal generation, receptor cross-reactivity (source data): 0.075 and 0.092 and 0.077

## CCCc1ccc(C(=O)c2cn(CCC)c3ccccc23)c2ccccc12 [JWH-180]
PYR1^WIN-M; cannabinoid at 2 nM
  ELISA signal generation, receptor cross-reactivity (source data): 0.104 and 0.071 and 0.083
PYR1^WIN-M; cannabinoid at 2 μM
  ELISA signal generation, receptor cross-reactivity (source data): 0.08 and 0.088 and 0.087

## Cc1ccc(C(=O)c2cn(CCN3CCOCC3)c3ccccc23)c2ccccc12 [JWH-193]
PYR1^WIN-M; cannabinoid at 2 nM
  ELISA signal generation, receptor cross-reactivity (source data): 0.065 and 0.104 and 0.068
PYR1^WIN-M; cannabinoid at 2 μM
  ELISA signal generation, receptor cross-reactivity (source data): 0.07 and 0.084 and 0.11

## CCCCCn1cc(C(=O)c2cccc3ccccc23)cc1-c1ccccc1C [JWH-370]
PYR1^WIN-M; cannabinoid at 2 nM
  ELISA signal generation, receptor cross-reactivity (source data): 0.069 and 0.076 and 0.063
PYR1^WIN-M; cannabinoid at 2 μM
  ELISA signal generation, receptor cross-reactivity (source data): 0.06 and 0.059 and 0.063

## CCCCCn1cc(C(=O)N2CCN(C)CC2)c2ccccc21 [Mepirapim]
PYR1^WIN-M; cannabinoid at 2 nM
  ELISA signal generation, receptor cross-reactivity (source data): 0.117 and 0.158 and 0.176
PYR1^WIN-M; cannabinoid at 2 μM
  ELISA signal generation, receptor cross-reactivity (source data): 0.111 and 0.116 and 0.103

## CCCCCn1cc(-c2nc(CN(CC)CC)cs2)c2ccccc21 [PTI-1]
PYR1^WIN-M; cannabinoid at 2 nM
  ELISA signal generation, receptor cross-reactivity (source data): 0.097 and 0.112 and 0.193
PYR1^WIN-M; cannabinoid at 2 μM
  ELISA signal generation, receptor cross-reactivity (source data): 0.105 and 0.089 and 0.091

## CCOP(=O)(OCC)Oc1ccc([N+](=O)[O-])cc1 [Paraoxon]
PYR1^PIRI; [Agonist] 1e-5 nM
  Sensor signal (Figure 4f bottom), replicate values: 11.9047 and 18.1515 and 10.4931
PYR1^PIRI; [Agonist] 0.5 nM
  Sensor signal (Figure 4f bottom), replicate values: 11.0975 and 13.4157 and 8.837
PYR1^PIRI; [Agonist] 1 nM
  Sensor signal (Figure 4f bottom), replicate values: 12.5918 and 18.7436 and 9.615
PYR1^PIRI; [Agonist] 10 nM
  Sensor signal (Figure 4f bottom), replicate values: 11.1224 and 13.1225 and 9.775
PYR1^PIRI; [Agonist] 100 nM
  Sensor signal (Figure 4f bottom), replicate values: 10.0591 and 11.6876 and 14.7625
PYR1^PIRI; [Agonist] 1000 nM
  Sensor signal (Figure 4f bottom), replicate values: 10.1585 and 20.7126 and 25.0764
PYR1^PIRI; [Agonist] 10000 nM
  Sensor signal (Figure 4f bottom), replicate values: 13.1804 and 18.2375 and 74.7884
PYR1^PIRI; [Agonist] 100000 nM
  Sensor signal (Figure 4f bottom), replicate values: 12.8083 and 10.7531 and 85.8371
PYR1^DIAZI; [Agonist] 1e-5 nM
  Sensor signal (Figure 4f top), replicate values: 10.8821 and 10.8818 and 16.2674
PYR1^DIAZI; [Agonist] 0.5 nM
  Sensor signal (Figure 4f top), replicate values: 11.8181 and 17.5251 and 16.6639
PYR1^DIAZI; [Agonist] 1 nM
  Sensor signal (Figure 4f top), replicate values: 24.3604 and 44.2392 and 23.2398
PYR1^DIAZI; [Agonist] 10 nM
  Sensor signal (Figure 4f top), replicate values: 60.5829 and 64.6146 and 19.0156
PYR1^DIAZI; [Agonist] 100 nM
  Sensor signal (Figure 4f top), replicate values: 14.8147 and 62.8846 and 19.484
PYR1^DIAZI; [Agonist] 1000 nM
  Sensor signal (Figure 4f top), replicate values: 35.1388 and 74.2295 and 30.1748
PYR1^DIAZI; [Agonist] 10000 nM
  Sensor signal (Figure 4f top), replicate values: 83.5675 and 57.6349 and 70.6242
PYR1^DIAZI; [Agonist] 100000 nM
  Sensor signal (Figure 4f top), replicate values: 100.899 and 20.8486 and 98.4357

## CCCCCc1cc(O)c2c(c1)OC(C)(C)[C@@H]1CCC(C)=C[C@@H]21 [Δ^9-THC, tetrahydrocannabinol]
PYR1^WIN-M; cannabinoid at 2 nM
  ELISA signal generation, receptor cross-reactivity (source data): 0.105 and 0.137 and 0.097
PYR1^WIN-M; cannabinoid at 2 μM
  ELISA signal generation, receptor cross-reactivity (source data): 0.116 and 0.081 and 0.066

B1: PYR1-diazi: diazinon-responsive heptuple PYR1 mutant (E8G, V81Y, L87M, F108Y, M158V, F159G, A160V) (protein)
chain: MPSELTPGERSELKNSIAEFHTYQLDPGSCSSLHAQRIHAPPELVWSIVRRFDKPQTYKHFIKSCSVEQNFEMRVGCTRDYIVISGMPANTSTERLDILDDERRVTGYSIIGGEHRLTNYKSVTTVHRFEKENRIWTVVLESYVVDMPEGNSEDDTRVGVDTVVKLNLQKLATVAEAMARNSGDGSGSQVT
modifications: left off: Gal4 DNA-binding domain (from the vector pBD), end not stated, kept
PYR1^DIAZI; [Ligand] (uM) 0.01
  split luciferase luminescence (Fig. 4c source data): 2.821 and 4.017 and 3.928
PYR1^DIAZI; [Ligand] (uM) 0.1
  split luciferase luminescence (Fig. 4c source data): 3.172 and 4.215 and 4.029
PYR1^DIAZI; [Ligand] (uM) 1
  split luciferase luminescence (Fig. 4c source data): 4.479 and 4.68 and 4.503
PYR1^DIAZI; [Ligand] (uM) 10
  split luciferase luminescence (Fig. 4c source data): 10.058 and 10.652 and 11.029
PYR1^DIAZI; [Ligand] (uM) 100
  split luciferase luminescence (Fig. 4c source data): 21.801 and 16.912 and 16.034
PYR1^DIAZI; [Ligand] (uM) 1000
  split luciferase luminescence (Fig. 4c source data): 25.73 and 20.742 and 19.283
PYR1^DIAZI; [Ligand] (uM) 10000
  split luciferase luminescence (Fig. 4c source data): 25.492 and 21.692 and 23.422

B2: PYR1-pirimi: pirimiphos-responsive octuple PYR1 mutant (K59R, S92M, N119S, S122Q, E130G, F159T, A160T, V174A) (protein, UniProt O49686 1-191, looked up, variant K59R S92M N119S S122Q E130G F159T A160T V174A)
Abscisic acid receptor PYR1: MPSELTPEERSELKNSIAEFHTYQLDPGSCSSLHAQRIHAPPELVWSIVRRFDKPQTYRHFIKSCSVEQNFEMRVGCTRDVIVISGLPANTMTERLDILDDERRVTGFSIIGGEHRLTSYKQVTTVHRFGKENRIWTVVLESYVVDMPEGNSEDDTRMTTDTVVKLNLQKLATAAEAMARNSGDGSGSQVT
PYR1^PIRI; [Ligand] 0.01
  split luciferase luminescence (Fig. 4c source data): 2.798 and 2.193 and 2.504
PYR1^PIRI; [Ligand] 0.1
  split luciferase luminescence (Fig. 4c source data): 2.824 and 1.934 and 2.89
PYR1^PIRI; [Ligand] 1
  split luciferase luminescence (Fig. 4c source data): 4.065 and 3.256 and 4.278
PYR1^PIRI; [Ligand] 10
  split luciferase luminescence (Fig. 4c source data): 10.289 and 6.672 and 8.183
PYR1^PIRI; [Ligand] 100
  split luciferase luminescence (Fig. 4c source data): 22.748 and 20.257 and 17.606
PYR1^PIRI; [Ligand] 1000
  split luciferase luminescence (Fig. 4c source data): 23.566 and 22.462 and 20.41
PYR1^PIRI; [Ligand] 10000
  split luciferase luminescence (Fig. 4c source data): 23.974 and 20.5 and 20.202

B3: PYR1^WIN-M: monomeric PYR1-WIN for ELISA: Y23H, D26G, K59Q, H60P, N90S, F159A, A160I (protein, UniProt O49686 1-191, looked up, variant Y23H D26G K59Q H60P N90S F159A A160I)
Abscisic acid receptor PYR1: MPSELTPEERSELKNSIAEFHTHQLGPGSCSSLHAQRIHAPPELVWSIVRRFDKPQTYQPFIKSCSVEQNFEMRVGCTRDVIVISGLPASTSTERLDILDDERRVTGFSIIGGEHRLTNYKSVTTVHRFEKENRIWTVVLESYVVDMPEGNSEDDTRMAIDTVVKLNLQKLATVAEAMARNSGDGSGSQVT
PYR1^WIN-M; spiked blood serum
  LOD (lower limit of detection): 1,105 pM
PYR1^WIN-M; spiked saliva
  LOD (lower limit of detection): 305 pM
PYR1^WIN-M; spiked urine
  LOD (lower limit of detection): 515 pM
